Source: patent publication US8921370B2, “Bicyclo[3.2.1]octyl amide derivatives and uses of same” (H. Lundbeck A/S, priority 2010, dated 2014)

What was measured:
hmGluR5 [1] = biological target: T1, hmGluR5 (Homo sapiens (Human), UniProt P41594); assay: Radioligand binding assay (MPEP binding site); settings: radioligand binding to the MPEP site, 5 nM radioligand; Ki by Cheng-Prusoff
Method: Binding assays were performed as described in [J. A. O'Brien et al. Mol. Pharmacol., 2003, 64, 731-740] with slight modifications, including that a radioligand that binds to the […] (MPEP) binding site was used in place of [^3H]-MPEP. Briefly, after thawing, the membrane homogenates were resuspended in 50 mM Tris-HCl and 0.9% NaCl binding buffer at pH 7.4 to a final assay concentration of 20 μg is protein/well for radioligand filtration binding. Incubations included 5 nM radioligand, membranes and either buffer or varying concentrations of compound. Samples were incubated for 60 min at room temperature with shaking. Non-specific binding was defined with 10 μM cold MPEP when using the radioligand. After incubation, samples were filtered over a GF/C filter (presoaked in 0.25% polyethyleneimine (PEI)) and then washed 4 times using a Tomtec® Harvester 96® Mach III cell harvester (Tomtec, Hamden, Conn.) with 0.5 mL ice-cold 50 mM Tris-HCl (pH 7.4). IC50 values were derived from the inhibition curve and Ki values were calculated according to the Cheng and Prusoff equation of Ki=IC50/(1+[L]/Kd) described in [Y. Cheng and W. H. Prusoff Biochem. Pharmacol. 1973, 22, 3099-3108] where [L] is the concentration of radioligand and Kd is its dissociation constant at the receptor, derived from the saturation isotherm. The Ki values of compounds of the invention were <10 μM.

hmGluR5 [2] = biological target: T1, hmGluR5; assay: Calcium mobilization assay (FLIPR), negative allosteric activity, EC80 glutamate; assay type: cell-based; settings: HEK 293 cells expressing hmGluR5; for Emax: HEK293, FLIPR maximum inhibition of EC80 glutamate response, read-out: hmGlu5 FLIPR % inhibition; for IC50: inhibition of EC80 glutamate response
Method: The cDNA for rat metabotropic glutamate receptor 5 (rmGluR5) and the cDNA for human metabotropic glutamate receptor 5 […] gifts from S. Nakanishi (Kyoto University, Kyoto, Japan). […] Twenty-four hours prior to assay, cells were seeded into 384-well black wall microtiter plates coated with poly-D-lysine. […] After excess dye was discarded, cells were washed in assay buffer and layered with a final volume equal to 30 μL/well. […] Laser excitation energy was adjusted so that basal fluorescence readings were approximately 10,000 relative fluorescent units. […] Basal readings derived from negative controls were subtracted from all samples. Maximum change in fluorescence was calculated for each well. Concentration-response curves derived from the maximum change in fluorescence were analyzed by nonlinear regression (Hill equation). A negative modulator can be identified from these concentration-response curves if a compound produces a concentration dependent inhibition of the EC80 glutamate response.

T1 sequence (P41594 21-1212): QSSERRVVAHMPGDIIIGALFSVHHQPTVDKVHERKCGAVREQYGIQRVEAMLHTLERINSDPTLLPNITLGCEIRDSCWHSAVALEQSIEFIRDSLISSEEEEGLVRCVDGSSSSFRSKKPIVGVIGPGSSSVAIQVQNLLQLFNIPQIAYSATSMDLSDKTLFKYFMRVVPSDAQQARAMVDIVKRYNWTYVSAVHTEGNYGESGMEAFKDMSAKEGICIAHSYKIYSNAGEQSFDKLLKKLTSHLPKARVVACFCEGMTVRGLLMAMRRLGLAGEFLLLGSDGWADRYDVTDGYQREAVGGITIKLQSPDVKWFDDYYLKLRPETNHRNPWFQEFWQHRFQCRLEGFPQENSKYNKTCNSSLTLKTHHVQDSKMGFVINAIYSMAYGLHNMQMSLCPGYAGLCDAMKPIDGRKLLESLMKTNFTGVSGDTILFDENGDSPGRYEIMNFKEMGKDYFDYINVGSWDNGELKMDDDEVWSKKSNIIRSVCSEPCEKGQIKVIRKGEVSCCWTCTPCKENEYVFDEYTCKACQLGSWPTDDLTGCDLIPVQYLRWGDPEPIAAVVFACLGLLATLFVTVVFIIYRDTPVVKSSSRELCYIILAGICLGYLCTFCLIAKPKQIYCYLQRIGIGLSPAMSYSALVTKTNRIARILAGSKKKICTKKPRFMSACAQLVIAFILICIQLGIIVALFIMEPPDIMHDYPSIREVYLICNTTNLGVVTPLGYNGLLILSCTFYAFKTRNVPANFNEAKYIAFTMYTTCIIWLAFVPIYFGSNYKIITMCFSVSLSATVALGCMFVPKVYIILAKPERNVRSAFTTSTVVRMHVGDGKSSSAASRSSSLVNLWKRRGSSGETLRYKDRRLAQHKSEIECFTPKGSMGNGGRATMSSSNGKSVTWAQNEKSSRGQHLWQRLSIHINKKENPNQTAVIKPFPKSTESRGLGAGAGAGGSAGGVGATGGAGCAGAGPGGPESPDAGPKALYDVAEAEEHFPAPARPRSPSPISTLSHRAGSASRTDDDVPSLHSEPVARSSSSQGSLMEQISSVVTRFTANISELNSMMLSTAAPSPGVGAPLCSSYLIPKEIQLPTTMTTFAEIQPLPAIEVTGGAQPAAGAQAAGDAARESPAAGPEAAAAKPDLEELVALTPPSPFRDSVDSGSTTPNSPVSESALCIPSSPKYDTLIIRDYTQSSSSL

Compound | Ki (hmGluR5 [1]) [nM] | Emax (hmGluR5 [2]) [%] | IC50 (hmGluR5 [2]) [nM]
Cc1cccc(C(=O)NC23CCCC(NC(=O)c4cccc(Cl)c4)(CC2)C3)n1 (stereo not drawn) [Example 2, N-(5-(3-chlorobenzamido)bicyclo[3.2.1]octan-1-yl)-6-methylpicolinamide] | 27 | 89 | 3.7
Cc1cncc(C(=O)NC23CCCC(NC(=O)c4cccc(F)c4)(CC2)C3)n1 (stereo not drawn) [Example 6, 6-Methyl-pyrazine-2-carboxylic acid [5-(3-fluoro-benzoylamino)-bicyclo[3.2.1]oct-1-yl]-amide] | 78 | 92 | 9
Cc1ncc(C(=O)NC23CCCC(NC(=O)c4cccc(Cl)c4)(CC2)C3)s1 (stereo not drawn) [Example 15, N-(5-(3-chlorobenzamido)bicyclo[3.2.1]octan-1-yl)-2-methylthiazole-5-carboxamide] | 340 | 88 | 26
Cc1cccc(C(=O)NC23CCCC(NC(=O)c4ccncc4)(CC2)C3)c1 (stereo not drawn) [Example 36, N-(5-(3-methylbenzamido)bicyclo[3.2.1]octan-1-yl)isonicotinamide] | 280 | 87 | 35
Cc1cccc(C(=O)N[C@@]23CCC[C@@](NC(=O)c4ccccn4)(CC2)C3)n1 [Example 126, 6-Methyl-pyridine-2-carboxylic acid {(1S,5R)-5-[(pyridine-2-carbonyl)-amino]-bicyclo[3.2.1]oct-1-yl}-amide] | 39 | 86 | 0.32
Cc1cncc(C(=O)N[C@]23CCC[C@](NC(=O)c4cccc(F)c4)(CC2)C3)n1 [Example 160, 6-Methyl-pyrazine-2-carboxylic acid [(1R,5S)-5-(3-fluoro-benzoylamino)-bicyclo[3.2.1]oct-1-yl]-amide] | 35 | 89 | 3.9
Cc1cncc(C(=O)N[C@@]23CCC[C@@](NC(=O)c4cccc(F)c4)(CC2)C3)n1 [Example 161, 6-Methyl-pyrazine-2-carboxylic acid [(1S,5R)-5-(3-fluoro-benzoylamino)-bicyclo[3.2.1]oct-1-yl]-amide] | 1200 | 90 | 134
Cc1cccc(NC(=O)C23CCCC(NC(=O)c4nc(C)cs4)(CC2)C3)n1 (stereo not drawn) [Example 171, 4-methyl-N-(5-(6-methylpyridin-2-ylcarbamoyl)bicyclo[3.2.1]octan-1-yl)thiazole-2-carboxamide] | 65 | 94 | 4.7
Cc1cccc(NC(=O)C23CCCC(NC(=O)c4cccc(Cl)c4)(CC2)C3)n1 (stereo not drawn) [Example 176, 5-(3-chlorobenzamido)-N-(6-methylpyridin-2-yl)bicyclo[3.2.1]octane-1-carboxamide] | 500 | 91 | 33
Cc1cccc(C(=O)NC23CCCC(C(=O)Nc4ccnc(C)n4)(CC2)C3)n1 (stereo not drawn) [Example 178, 6-methyl-N-(5-(2-methylpyrimidin-4-ylcarbamoyl)bicyclo[3.2.1]octan-1-yl)picolinamide] | 370 | 90 | 38
